# Measurements reported in patent US20250073251A1, “COMPOSITIONS AND METHODS AND USES THEREOF” (Journey Medical Corporation, priority 2019, published 2025).
# Values joined by “and” are separate entries in the source; they are usually repeats but may differ in a detail not shown here. Equal entries are not always repeated. Structures can show the parent of a compound that is named as a salt.
# Assays:
# [1] = test system: moderate-to-severe acne vulgaris; conditions: human, in vivo
# [2] = Toxicokinetics after daily dermal application
# Method: (§1) Bioanalytical Sample Collection Blood samples (approximately 2 mL) are collected from all surviving animals via the abdominal vena cava through the thoracic inlet for determination of the plasma concentrations of adapalene and minocycline (see Tables 5 and 6). The animals were not fasted prior to blood collection, with the exception of the intervals that coincided with fasting for clinical pathology collections.
# (§2) Blood samples are collected in tubes containing K2EDTA and placed on wet ice and centrifuged under refrigerated conditions. The resulting plasma is divided into 3 aliquots (100 μL in Aliquot 1 [minocycline], 500 μL in Aliquot 2 [adapalene], and any remaining plasma in Aliquot 3) in pre-labeled cryovials. All aliquots are stored frozen at −60° C. to −90° C.
# (§3) The TK parameters are determined for adapalene and minocycline from individual concentration-time data by the Testing Facility.
# in vivo = conditions: both, Göttingen, minipig, plasma, topical or ocular
# Method: as §1, §2, §3
structure (smiles),measurement,setting,value
COc1ccc(-c2ccc3cc(C(=O)O)ccc3c2)cc1C12CC3CC(CC(C3)C1)C2 [0.3% adapalene foam],AE Maximum Severity: Mild,[1],14 (12.5%)
same,AE Maximum Severity: Moderate,[1],4 (3.6%)
same,AE Maximum Severity: Severe,[1],2 (1.8%)
same,Abdominal pain,[1],0 subjects (%)
same,"Acne, (%) of subjects",[1],(1.8%)
same,Buming sensation,[1],0 subjects (%)
same,"Burning and Stinging: None, subjects n (%)",[1],82 (78.1%) and 97 (92.4%) and 89 (89.9%) and 105 (93.8%)
same,"Burning and Stinging: Severe, subjects n (%)",[1],0
same,Burning sensation,[1],0 subjects (%)
same,Constipation,[1],0 subjects (%)
same,Dehydration,[1],0 subjects (%)
same,Dermatitis contact,[1],0 subjects (%)
same,"Diastolic Blood Pressure, Max",[1],"58, 98 mmHg and 56, 93 mmHg and 57, 94 mmHg and 48, 94 mmHg"
same,"Diastolic Blood Pressure, Mean",[1],73.1 mmHg and 72.8 mmHg and 72.1 mmHg
same,"Diastolic Blood Pressure, Median",[1],72.0 mmHg
same,"Diastolic Blood Pressure, Min",[1],"58, 98 mmHg and 56, 93 mmHg and 57, 94 mmHg and 48, 94 mmHg"
same,"Dryness: Mild, subjects n (%)",[1],27 (24.1%) and 26 (24.8%) and 17 (17.2%)
same,"Dryness: None, subjects n (%)",[1],82 (73.2%) and 75 (71.4%) and 77 (73.3%) and 81 (81.8%)
same,"Dryness: Severe, subjects n (%)",[1],0
same,"Erythema: Mild, subjects n (%)",[1],36 (32.1%) and 27 (25.7%) and 36 (34.3%) and 27 (27.3%)
same,"Erythema: None, subjects n (%)",[1],51 (45.5%) and 55 (52.4%) and 58 (55.2%) and 62 (62.6%)
same,"Erythema: Severe, subjects n (%)",[1],1 (0.9%) and 2 (1.9%) and 1 (1.0%)
same,"Heart Rate, Max",[1],"52, 100 beats/min and 52, 99 beats/min and 51, 99 beats/min and 52, 96 beats/min"
same,"Heart Rate, Mean",[1],75.9 beats/min and 76.1 beats/min and 75.7 beats/min and 74.1 beats/min
same,"Heart Rate, Median",[1],73.0 beats/min and 77.0 beats/min and 76.0 beats/min
same,"Heart Rate, Min",[1],"52, 100 beats/min and 52, 99 beats/min and 51, 99 beats/min and 52, 96 beats/min"
same,Hyperaesthesia,[1],0 subjects (%)
same,"Hyperpigmentation: Mild, subjects n (%)",[1],20 (19.0%) and 19 (19.2%) and 31 (27.7%) and 22 (21.0%)
same,"Hyperpigmentation: Moderate, subjects n (%)",[1],4 (3.8%) and 4 (4.0%) and 6 (5.4%)
same,"Hyperpigmentation: None, subjects n (%)",[1],81 (77.1%) and 76 (76.8%) and 75 (67.0%) and 79 (75.2%)
same,"Hyperpigmentation: Severe, subjects n (%)",[1],0
same,Immune system disorders,[1],0 subjects (%)
same,Infectious mononucleosis,[1],0 subjects (%)
same,"Itching: None, subjects n (%)",[1],87 (77.7%) and 79 (75.2%) and 86 (81.9%) and 86 (86.9%)
same,Ligament rupture,[1],0 subjects (%)
same,Metabolism and nutrition disorders,[1],0 subjects (%)
same,Nail discolouration,[1],0 subjects (%)
same,Nasopharyngitis,[1],0 subjects (%)
same,Nausea,[1],0 subjects (%)
same,"Neoplasms benign, malignant and unspecified (incl cysts and polyps)",[1],0 subjects (%)
same,Number (%) of subjects withdrawn from study due to TEAE,[1],3 (2.7%) subjects (%)
same,Number (%) of subjects withdrawn from study due to treatment-related TEAE,[1],3 (2.7%) subjects (%)
same,Oropharyngeal pain,[1],0 subjects (%)
same,Otitis media acute,[1],0 subjects (%)
same,Pain,[1],0 subjects (%)
same,Pain of skin,[1],0 subjects (%)
same,Paranasal sinus discomfort,[1],0 subjects (%)
same,Pharyngitis streptococcal,[1],0 subjects (%)
same,Pyogenic granuloma,[1],0 subjects (%)
same,"Rash, (%) of subjects",[1],(0.9%)
same,Rhinorrhoea,[1],0 subjects (%)
same,"Scaling: Mild, subjects n (%)",[1],21 (18.8%) and 19 (18.1%) and 17 (16.2%) and 12 (12.1%)
same,"Scaling: Moderate, subjects n (%)",[1],2 (1.8%) and 3 (2.9%) and 2 (1.9%) and 3 (3.0%)
same,"Scaling: None, subjects n (%)",[1],89 (79.5%) and 83 (79.0%) and 86 (81.9%) and 84 (84.8%)
same,"Scaling: Severe, subjects n (%)",[1],0
same,Sciatica,[1],0 subjects (%)
same,Seasonal allergy,[1],0 subjects (%)
same,Serious AE,[1],0
same,Subjects reporting at least one treatment-related TEAE,[1],10 (8.9%) subjects (%)
same,Subjects with any TEAE leading to discontinuation of study drug,[1],3 (2.7%)
same,Subjects with at least one AE,[1],20 (17.9%)
same,"Systolic Blood Pressure, Max",[1],"92, 150 mmHg and 96, 150 mmHg and 95, 152 mmHg and 92, 149 mmHg"
same,"Systolic Blood Pressure, Mean",[1],116.7 mmHg
same,"Systolic Blood Pressure, Min",[1],"92, 150 mmHg and 96, 150 mmHg and 95, 152 mmHg and 92, 149 mmHg"
same,TEAE: Abdominal pain,[1],0
same,TEAE: Acne,[1],2 (1.8%)
same,TEAE: Acute sinusitis,[1],1 (0.9%)
same,TEAE: Burning sensation,[1],0
same,TEAE: Burns first degree,[1],1 (0.9%)
same,TEAE: Constipation,[1],0
same,TEAE: Cough,[1],1 (0.9%)
same,TEAE: Dehydration,[1],0
same,TEAE: Dermatitis contact,[1],0
same,TEAE: Diarrhoea,[1],1 (0.9%)
same,TEAE: Dry skin,[1],4 (3.6%)
same,TEAE: Eczema,[1],1 (0.9%)
same,TEAE: Erythema of eyelid,[1],1 (0.9%)
same,TEAE: Eye disorders,[1],3 (2.7%)
same,TEAE: Eye irritation,[1],2 (1.8%)
same,TEAE: Facial bones fracture,[1],1 (0.9%)
same,TEAE: Gastrointestinal disorders,[1],1 (0.9%)
same,TEAE: General disorders and administration site conditions,[1],1 (0.9%)
same,TEAE: Headache,[1],2 (1.8%)
same,TEAE: Hordeolum,[1],1 (0.9%)
same,TEAE: Hyperaesthesia,[1],0
same,TEAE: Immune system disorders,[1],0
same,TEAE: Infections and infestations,[1],8 (7.1%)
same,TEAE: Infectious mononucleosis,[1],0
same,"TEAE: Injury, poisoning and procedural complications",[1],2 (1.8%)
same,TEAE: Ligament rupture,[1],0
same,TEAE: Ligament sprain,[1],1 (0.9%)
same,TEAE: Metabolism and nutrition disorders,[1],0
same,TEAE: Nail discolouration,[1],0
same,TEAE: Nasopharyngitis,[1],0
same,TEAE: Nausea,[1],0
same,"TEAE: Neoplasms benign, malignant and unspecified (incl cysts and polyps)",[1],0
same,TEAE: Nervous system disorders,[1],2 (1.8%)
same,TEAE: Oropharyngeal pain,[1],0
same,TEAE: Otitis media acute,[1],0
same,TEAE: Pain,[1],0
same,TEAE: Pain of skin,[1],0
same,TEAE: Pharyngitis,[1],1 (0.9%)
same,TEAE: Pharyngitis streptococcal,[1],0
same,TEAE: Pyogenic granuloma,[1],0
same,TEAE: Rash,[1],2 (1.8%)
same,"TEAE: Respiratory, thoracic and mediastinal disorders",[1],1 (0.9%)
same,TEAE: Rhinorrhoea,[1],0
same,TEAE: Sciatica,[1],0
same,TEAE: Seasonal allergy,[1],0
same,TEAE: Sinusitis,[1],1 (0.9%)
same,TEAE: Skin discolouration,[1],1 (0.9%)
same,TEAE: Skin irritation,[1],1 (0.9%)
same,TEAE: Staphylococcal infection,[1],1 (0.9%)
same,TEAE: Toothache,[1],0
same,TEAE: Upper respiratory tract infection,[1],1 (0.9%)
same,TEAE: Viral upper respiratory tract infection,[1],1 (0.9%)
same,TEAE: Vomiting,[1],0
same,Toothache,[1],0 subjects (%)
same,Treatment-Related AE,[1],10 (8.9%)
same,Vomiting,[1],0 subjects (%)
same,"Weight, Max",[1],"43.5, 163.3 kg and 43.5, 166.0 kg"
same,"Weight, Mean",[1],77.06 kg and 77.28 kg
same,"Weight, Median",[1],71.10 kg and 71.50 kg
same,"Weight, Min",[1],"43.5, 163.3 kg and 43.5, 166.0 kg"
same,"Withdrawal from Study, Primary Reason: Adverse Event, % of subjects",[1],3 (2.7%)
same,"Withdrawal from Study, Primary Reason: Adverse Event, number of subjects",[1],3 (2.7%)
same,adverse events assessed as mild in severity,[1],12.5%
same,dry skin adverse event,[1],3.6%
same,overall tolerability (LSTA) scores compared to the other treatment groups,[1],lower
same,subject discontinuations due to a treatment emergent adverse event,[1],2.7%
same,subjects with TEAEs that led to discontinuation of study drug,[1],3 subjects
same,subjects with severe (treatment related) TEAE,[1],1.8%
same,"treatment emergent adverse events, frequency",[1],8.9%
same,TEAE: Skin and subcutaneous tissue disorders,[1]; sc,10 (8.9%)
COc1ccc(-c2ccc3cc(C(=O)O)ccc3c2)cc1C12CC3CC(CC(C3)C1)C2 [adapalene],mean Cmax and AUC0-24hr for adapalene versus dose,"[2]; 0.25 to […] adapalene with […] minocycline, Day 91",approximately dose proportional
same,"systemic exposure, dependence on sex",[2]; Day 91,independent of sex
same,Tmax,"[2]; Group 3, adapalene […] alone, daily dermal, Day 91, minimum-maximum (median not reported)",(0-8) hr
same,Tmax,"[2]; Group 4, adapalene […] + minocycline […] FCD105 Foam, Day 1, minimum-maximum (median not reported)",(8-24) hr
same,Tmax,"[2]; Group 4, adapalene […] + minocycline […] FCD105 Foam, Day 91, minimum-maximum (median not reported)",(0-24) hr
same,Tmax,"[2]; Göttingen, minipig, plasma, topical or ocular, […], Tmax, Group 3, adapalene […] alone, daily dermal, Day 1, median",24 h
same,Tmax,"[2]; Göttingen, minipig, plasma, topical or ocular, […], Tmax, Group 5, adapalene […] + minocycline […] FCD105 Foam, Day 1, median",24 h
same,Tmax,"[2]; Göttingen, minipig, plasma, topical or ocular, […], Tmax, Group 5, adapalene […] + minocycline […] FCD105 Foam, Day 91, median",1 h
same,Tmax,"[2]; Göttingen, minipig, plasma, topical or ocular, […], Tmax, Group 6, adapalene […] + minocycline […] FCD105 Foam, Day 1, median",24 h
same,Tmax,"[2]; Göttingen, minipig, plasma, topical or ocular, […], Tmax, Group 6, adapalene […] + minocycline […] FCD105 Foam, Day 91, median",1 h
"CN(C)c1ccc(O)c2c1C[C@H]1C[C@H]3[C@H](N(C)C)C(O)=C(C(N)=O)C(=O)[C@@]3(O)C(O)=C1C2=O [minocycline, minocycline hydrochloride]",Cmax,in vivo,17.4 ng/mL
same,"systemic exposure, dependence on sex",[2]; Day 91,independent of sex
same,Tmax,"[2]; Group 6, minocycline […] + adapalene […] FCD105 Foam, Day 1, minimum-maximum (median not reported)",(4-8) hr
same,Tmax,"[2]; Group 6, minocycline […] + adapalene […] FCD105 Foam, Day 91, minimum-maximum (median not reported)",(0-8) hr
same,Tmax,"[2]; Göttingen, minipig, plasma, topical or ocular, […], Tmax, Group 4, minocycline […] + adapalene […] FCD105 Foam, Day 1, median",4 h
same,Tmax,"[2]; Göttingen, minipig, plasma, topical or ocular, […], Tmax, Group 4, minocycline […] + adapalene […] FCD105 Foam, Day 91, median",2 h
same,Tmax,"[2]; Göttingen, minipig, plasma, topical or ocular, […], Tmax, Group 5, minocycline […] + adapalene […] FCD105 Foam, Day 1, median",24 h
same,Tmax,"[2]; Göttingen, minipig, plasma, topical or ocular, […], Tmax, Group 5, minocycline […] + adapalene […] FCD105 Foam, Day 91, median",2 h
